Several values for one entry are separate records, joined by “and”; a condition that tells them apart may be missing. Identical values can stand only once. Each block holds one compound with its values, some of them ahead of it.
How the values were obtained:
[1] = test system: glucose transport across differentiated Caco-2 cell monolayers; test: Glucose transport cell model: 5 mM D-glucose 15 minutes, then 25 mM for 45 minutes, cumulative glucose transport; assay type: cell-based, human; set-up: unit not given here; conditions: duplicate
Procedure: Caco-2 cells were cultured and routinely passaged as described in Example 1.
After the last incubation, all of the retained PBS(+) from each step (i.e. at 15, 30, 45 and 60 minutes) was assayed for glucose levels as described in Example 1, and the total cumulative glucose transport calculated. The localised changes in luminal glucose concentrations described and illustrated in example 1 are mimicked in-vitro through an initial short incubation of differentiated Caco-2 cells with a low level of D-glucose (5 mM for 15 minutes) immediately followed by a sustained incubation with a high level of D-glucose (final concentration of 25 mM for 45 minutes).
In the above table, every test pairing of a homisoflavonoid (HIF) and a flavonoid monoglucoside (FM) has 5 values reported: • 1. No Compound (NC)+NC • 2.
Synergy is achieved when the inhibition caused by the combination of HIF and FM is greater than the sum of the inhibition due to HIF alone added to the inhibition due to FM alone.

[2] = target: T1, SGLT1 (Homo sapiens, UniProt P13866); conditions: as disclosed in Table 1 of WO 2014/086632; cited from earlier work
T1 sequence (P13866 1-664): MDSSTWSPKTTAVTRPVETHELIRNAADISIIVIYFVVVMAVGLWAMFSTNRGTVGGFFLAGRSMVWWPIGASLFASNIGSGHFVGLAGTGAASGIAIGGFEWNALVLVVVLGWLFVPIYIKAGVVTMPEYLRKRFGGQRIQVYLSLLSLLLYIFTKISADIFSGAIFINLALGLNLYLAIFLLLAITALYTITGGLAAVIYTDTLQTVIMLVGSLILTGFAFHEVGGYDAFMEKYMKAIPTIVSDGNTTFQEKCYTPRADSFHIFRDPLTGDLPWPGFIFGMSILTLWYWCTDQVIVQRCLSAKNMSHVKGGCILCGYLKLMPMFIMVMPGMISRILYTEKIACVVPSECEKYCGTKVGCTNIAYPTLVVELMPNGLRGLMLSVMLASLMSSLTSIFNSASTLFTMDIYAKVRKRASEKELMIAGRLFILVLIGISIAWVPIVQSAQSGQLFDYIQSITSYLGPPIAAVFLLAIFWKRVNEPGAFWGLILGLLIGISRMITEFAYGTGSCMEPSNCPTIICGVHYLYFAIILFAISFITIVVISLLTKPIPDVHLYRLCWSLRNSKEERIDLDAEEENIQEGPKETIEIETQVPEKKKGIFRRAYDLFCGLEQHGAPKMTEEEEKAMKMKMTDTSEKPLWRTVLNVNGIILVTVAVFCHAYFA

[3] = test system: SGLT1 and GLUT2; test: Assigned class of transporter inhibited, from Caco-2 screening at 5 mM and 25 mM D-glucose; assay type: cell-based, human; conditions: from % inhibition at 5 mM and 25 mM D-glucose; compound 300 μM
[4] = target: T2, GLUT2 (Homo sapiens, UniProt P11168); test: Glucose transport inhibitor cell screening assay, 25 mM D-glucose for 30 minutes; conditions: for inhibition at 300 µM: Caco-2, read-out: % Glucose transport inhibiton 25 mM; for identified as inhibitors of GLUT2: Caco-2 cell assay
T2 sequence (P11168 1-524): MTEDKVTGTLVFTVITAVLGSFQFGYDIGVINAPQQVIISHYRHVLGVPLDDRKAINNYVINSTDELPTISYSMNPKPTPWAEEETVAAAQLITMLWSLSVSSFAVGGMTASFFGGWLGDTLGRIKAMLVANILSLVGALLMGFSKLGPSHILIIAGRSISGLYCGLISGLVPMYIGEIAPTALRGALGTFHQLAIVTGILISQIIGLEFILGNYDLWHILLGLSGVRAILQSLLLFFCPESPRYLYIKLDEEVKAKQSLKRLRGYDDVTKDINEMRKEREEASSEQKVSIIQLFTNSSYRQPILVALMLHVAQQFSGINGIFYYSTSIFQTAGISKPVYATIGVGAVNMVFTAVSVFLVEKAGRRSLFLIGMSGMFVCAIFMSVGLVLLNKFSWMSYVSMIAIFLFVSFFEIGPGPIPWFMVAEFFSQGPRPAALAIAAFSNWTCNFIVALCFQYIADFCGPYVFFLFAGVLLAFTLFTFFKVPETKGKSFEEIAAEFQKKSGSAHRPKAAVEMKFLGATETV
Procedure: (§1) Human epithelial colorectal adenocarcinoma (Caco-2) cells were obtained from the American Type Culture Collection (ATCC) and cultured in Growth Medium consisting of Dulbecco's modified Eagle's medium (containing Glutamax-1, 4.5 g/L D-glucose and 25 mM 4-(2-hydroxyethyl)-1-piperazine ethanesulphonic acid (Hepes) (Invitrogen)), 10% foetal bovine serum (Sigma), 1% non-essential amino acids (Invitrogen) and 1 mM sodium pyruvate (Sigma)). The cells were routinely passaged at approximately 80% confluence using TrypLE™ Express Stable Trypsin-Like Enzyme (Invitrogen) to detach the cells, and seeded at approximately 114 cells per mm^2 in fresh tissue culture flasks. Only cells between the passage numbers 45 and 49 were used for experiments.
(§2) Corning® HTS Transwell® 96 well permeable insert supports (Sigma) were collagen coated with 40 μl of 50 μg/ml rat tail collagen type I (BD Biosciences) in 0.02 M acetic acid for one hour at room temperature under sterile conditions. The inserts were washed twice in phosphate buffered saline (PBS (Invitrogen)) and the Caco-2 cells seeded into the inserts at 1.0×10^6 cell/ml (75 μl per insert) in Growth Medium and 30 ml of Growth Medium added to the feeder plate below. The cells were left to attach to the collagen matrix and form monolayers over 48 hours at 37° C., 5% CO2. Both inserts and feeder plate were washed in PBS and the cells incubated with BD Entero-STIM™ Enterocyte Differentiation Medium containing MITO+™ Serum Extender solution (both BD Biosciences), 75 μl per insert and 30 ml in the feeder plate, for a further 48 hours at 37° C., 5% CO2.
(§3) Differentiated cell monolayers were washed gently in Dulbecco's Phosphate Buffered Saline containing CaCl2 and MgCl2 (PBS(+) (Invitrogen)) and the inserts transferred to a new Corning® HTS Transwell®-96 well receiver plate (Sigma). The cells were incubated with fresh PBS(+) (75 μl per insert and 225 μl per well) for 60 minutes at 37° C., 5% CO2. The PBS(+) was gently aspirated and replaced with 75 μl per insert of either 5 mM D-glucose (Sigma)±test compound or 25 mM D-glucose±test compound in triplicate and 225 μl per well of PBS(+) quickly added to each well. The 5 mM glucose wells and the 25 mM glucose wells were incubated at 37° C., 5% CO2 for 15 minutes and 30 minutes, respectively. […] The cell inserts were transferred to a new receiver plate, the supernatant gently aspirated from the cells and replaced with 100 μl of 100 μM of Lucifer Yellow (Sigma) solution to confirm the integrity of the monolayers. 225 μl of PBS(+) was added to each well and incubated at 37° C., 5% CO2 for 1 hour. The cell inserts were then discarded and the permeability of the membranes to Lucifer Yellow checked by measuring the fluorescence of the samples at 485 nm (excitation) and 530 nm (emission) on a Spectramax Gemini EM fluorescence microplate reader.
(§4) The amount of glucose transported across the cell monolayers was measured using a glucose assay based on Invitrogen's Amplex Red Glucose/Glucose oxidase Assay Kit. Briefly, 50 μl of each test sample was transferred to a black sided/clear bottom 96-well plate (Greiner Bio-One) to which 100 μl of reaction buffer (0.5 μl 10 mM Ampliflu Red, 1 μl 10 U/ml Horse Radish peroxidase, 1 μl 100 U/ml glucose oxidase and 97.5 μl PBS (all Sigma)) was added. After 10 minutes incubation at room temperature, the fluorescence of the samples was measured at 530 nm (excitation) and 590 nm (emission) on a Spectramax Gemini EM fluorescence microplate reader and the glucose concentration extrapolated from a standard curve.
(§5) At higher D-glucose concentrations, the SGLT1 transporter becomes saturated and consequently the majority of glucose transport across the monolayer is driven by the low affinity, high capacity GLUT2 transporter that is targeted to the apical membrane only following an initial SGLT1-dependent transport of glucose.

[5] = target: T1, SGLT1; test: Glucose transport inhibitor cell screening assay, 5 mM D-glucose for 15 minutes; conditions: for inhibition at 300 µM: Caco-2, read-out: % Glucose transport inhibiton 5 mM
Procedure: as §1, §2, §3, §4, §5

[6] = flavonoid monoglucoside 300 uM alone, added at 5 mM glucose step only (NC at 25 mM)
[7] = flavonoid monoglucoside 300 uM alone, added at 25 mM glucose step only (NC at 5 mM)
[8] = homoisoflavonoid 2.5 uM alone, added at 25 mM glucose step (NC at 5 mM)
[9] = homoisoflavonoid 10 uM alone, added at 25 mM glucose step (NC at 5 mM)

Compound: O=c1cc(-c2ccc(O)cc2)oc2c([C@@H]3O[C@H](CO)[C@@H](O)[C@H](O)[C@H]3O)c(O)cc(O)c12 [Apigenin-8-C-glucoside]
Cumulative (AVE) glucose transport [1, 6]: 291.89 | Cumulative (AVE) glucose transport [1, 7]: 287.58 | SGLT1 inhibitory activity [2]: SGLT1 inhibitors

Compound: OC[C@H]1O[C@@H](Oc2cc3c(O)cc(O)cc3[o+]c2-c2cc(O)c(O)c(O)c2)[C@H](O)[C@@H](O)[C@@H]1O.[Cl-] [Delphinidin-3-O-glucoside chloride, delphinidin-3-O-glucoside chloride]
Cumulative (AVE) glucose transport [1, 6]: 220.62 | Cumulative (AVE) glucose transport [1, 7]: 227.60 | Class (assigned class of transporter inhibited) [3]: SGLT1 | % Glucose transport inhibiton 25 mM ([4]; compound 300 μM in DMSO, 25 mM D-glucose, 30 minutes, Caco-2 monolayer, triplicate): 12.82 ± 1.19% | identified as inhibitors of SGLT1 ([5]; Caco-2 cell assay): inhibitors of SGLT1 | % Glucose transport inhibiton 5 mM ([5]; compound 300 μM in DMSO, 5 mM D-glucose, 15 minutes, Caco-2 monolayer, triplicate): 41.00 ± 3.60%

inhibition at 300 µM [4]: 66.6 ± 5.21% | identified as inhibitors of GLUT2 [4]: inhibitors of GLUT2 | inhibition at 300 µM [5]: 90.7 ± 1.4%
Compound: Cc1c(O)cc2c(c1O)C(=O)C(Cc1ccc(O)cc1)CO2 (stereo not drawn) [EA1, 5,7-dihydroxy-3-(4′-hydroxybenzyl)-6-methylchroman-4-one]
Cumulative (AVE) glucose transport [1, 8]: 339.2 | Cumulative (AVE) glucose transport ([1]; homoisoflavonoid 5 uM alone, added at 25 mM glucose step (NC at 5 mM)): 284.6 | Cumulative (AVE) glucose transport [1, 9]: 301.50 and 232.03 | Class (assigned class of transporter inhibited) [3]: GLUT2 (GLUT2 inhibitors having ≥20% inhibition at both 5 mM and 25 mM D-glucose levels)

inhibition at 300 µM [4]: 63 ± 2.94% | identified as inhibitors of GLUT2 [4]: inhibitors of GLUT2 | inhibition at 300 µM [5]: 89.9 ± 0.06%
Compound: COc1c(O)c(C)c(O)c2c1OCC(Cc1ccc(O)cc1)C2=O (stereo not drawn) [EA2, 5,7-dihydroxy-3-(4′-hydroxybenzyl)-6-methyl-8-methoxychroman-4-one]
Cumulative (AVE) glucose transport [1, 9]: 283.98 | Class (assigned class of transporter inhibited) [3]: GLUT2 (GLUT2 inhibitors having ≥20% inhibition at both 5 mM and 25 mM D-glucose levels)

inhibition at 300 µM [4]: 67.4 ± 5.87% | identified as inhibitors of GLUT2 [4]: inhibitors of GLUT2 | inhibition at 300 µM [5]: 91.15 ± 0.46%
Compound: Cc1c(O)c(C)c2c(c1O)C(=O)C(Cc1ccc(O)cc1)CO2 (stereo not drawn) [EA3, 5,7-dihydroxy-3-(4′-hydroxybenzyl)-6,8-dimethylchroman-4-one]
Cumulative (AVE) glucose transport [1, 8]: 291.33 | Class (assigned class of transporter inhibited) [3]: GLUT2 (GLUT2 inhibitors having ≥20% inhibition at both 5 mM and 25 mM D-glucose levels)

Compound: O=c1c(O[C@@H]2O[C@H](CO)[C@@H](O)[C@H](O)[C@H]2O)c(-c2ccc(O)cc2)oc2cc(O)cc(O)c12 [Kaempferol-3-glucoside]
Cumulative (AVE) glucose transport ([1]; flavonoid monoglucoside 150 uM alone, added at 5 mM glucose step only (NC at 25 mM)): 297.72 | Cumulative (AVE) glucose transport ([1]; flavonoid monoglucoside 150 uM alone, added at 25 mM glucose step only (NC at 5 mM)): 290.49 | SGLT1 inhibitory activity [2]: SGLT1 inhibitors

Compound: O=c1cc(-c2ccc(O)c(O)c2)oc2cc(O[C@@H]3O[C@H](CO)[C@@H](O)[C@H](O)[C@H]3O)cc(O)c12 [Luteolin-7-glucoside]
Cumulative (AVE) glucose transport ([1]; flavonoid monoglucoside 300 uM alone, added at 5 mM glucose step only (NC at 25 mM), listed as L7G): 220.63 and 301.4 | Cumulative (AVE) glucose transport ([1]; flavonoid monoglucoside 300 uM alone, added at 25 mM glucose step only (NC at 5 mM), listed as L7G): 256.73 and 281.9 | SGLT1 inhibitory activity [2]: SGLT1 inhibitors

Compound: O=C1CC(c2ccc(O)cc2)Oc2cc(O[C@@H]3O[C@H](CO)[C@@H](O)[C@H](O)[C@H]3O)cc(O)c21 (stereo partly drawn) [Naringenin-7-O-glucoside]
Cumulative (AVE) glucose transport [1, 6]: 215.32 | Cumulative (AVE) glucose transport [1, 7]: 236.65 | SGLT1 inhibitory activity [2]: SGLT1 inhibitors

inhibition at 300 µM [4]: 14.3 ± 0.84%
Compound: O=C(CCc1ccc(O)cc1)c1c(O)cc(O)cc1O[C@@H]1O[C@H](CO)[C@@H](O)[C@H](O)[C@H]1O [Phloridzin, reference compound]

Compound: O=c1cc(-c2ccc(O)cc2)oc2cc(OC3O[C@H](CO)[C@@H](O)[C@H](O)[C@H]3O)cc(O)c12 (stereo partly drawn) [apigenin-7-glucoside]
SGLT1 inhibitory activity [2]: SGLT1 inhibitors

Compound: OC[C@H]1O[C@@H](Oc2ccc(O)cc2)[C@H](O)[C@@H](O)[C@@H]1O [arbutin]
SGLT1 inhibitory activity [2]: lack of SGLT1 inhibitory activity

Compound: OC[C@H]1O[C@@H](Oc2cc3c(O)cc(O)cc3[o+]c2-c2ccc(O)c(O)c2)[C@H](O)[C@@H](O)[C@@H]1O [cyanidin-3-glucoside]
SGLT1 inhibitory activity [2]: SGLT1 inhibitors

Compound: C[C@@H]1O[C@@H](OC[C@H]2O[C@@H](Oc3cc4c(O)cc(O)cc4[o+]c3-c3ccc(O)c(O)c3)[C@H](O)[C@@H](O)[C@@H]2O)[C@H](O)[C@H](O)[C@H]1O [cyanidin-3-rutinoside]
SGLT1 inhibitory activity [2]: absence of SGLT1 inhibitory activity

Compound: O=c1c(-c2ccc(O)cc2)coc2cc(O[C@@H]3O[C@H](CO)[C@@H](O)[C@H](O)[C@H]3O)ccc12 [daidzein-7-glucoside]
SGLT1 inhibitory activity [2]: SGLT1 inhibitors

Compound: O=c1c(-c2ccc(O)cc2)coc2c([C@@H]3O[C@H](CO)[C@@H](O)[C@H](O)[C@H]3O)c(O)ccc12 [daidzein-8-C-glucoside]
SGLT1 inhibitory activity [2]: SGLT1 inhibitors

Compound: OC[C@H]1O[C@@H](Oc2cc3c(O)cc(O)cc3[o+]c2-c2cc(O)c(O)c(O)c2)[C@H](O)[C@@H](O)[C@@H]1O [delphinidin-3-glucoside]
SGLT1 inhibitory activity [2]: SGLT1 inhibitors

Compound: O=C1CC(c2ccc(O)c(O)c2)Oc2cc(O[C@@H]3O[C@H](CO)[C@@H](O)[C@H](O)[C@H]3O)cc(O)c21 (stereo partly drawn) [eriodictiol-7-glucoside]
SGLT1 inhibitory activity [2]: SGLT1 inhibitors

Compound: O=c1c(O)c(-c2ccc(O)cc2)oc2cc(O[C@@H]3O[C@H](CO)[C@@H](O)[C@H](O)[C@H]3O)cc(O)c12 [kaempferol-7-glucoside]
SGLT1 inhibitory activity [2]: SGLT1 inhibitors

Compound: COc1cc(-c2[o+]c3cc(O)cc(O)c3cc2O[C@@H]2O[C@H](CO)[C@H](O)[C@H](O)[C@H]2O)cc(OC)c1O [malvidin-3-O-galactoside]
SGLT1 inhibitory activity [2]: absence of SGLT1 inhibitory activity

Compound: COc1cc(-c2[o+]c3cc(O)cc(O)c3cc2O[C@@H]2O[C@H](CO)[C@@H](O)[C@H](O)[C@H]2O)cc(OC)c1O [malvidin-3-O-glucoside]
SGLT1 inhibitory activity [2]: SGLT1 inhibitors

Compound: OC[C@H]1O[C@@H](Oc2cc3c(O)cc(O)cc3[o+]c2-c2ccc(O)cc2)[C@H](O)[C@@H](O)[C@@H]1O [pelargonidin-3-glucoside]
SGLT1 inhibitory activity [2]: SGLT1 inhibitors

Compound: O=c1c(O[C@@H]2O[C@H](CO)[C@@H](O)[C@H](O)[C@H]2O)c(-c2ccc(O[C@@H]3O[C@H](CO)[C@@H](O)[C@H](O)[C@H]3O)c(O)c2)oc2cc(O)cc(O)c12 [quercetin-3,4′-diglucoside]
SGLT1 inhibitory activity [2]: destroys this inhibitory action

Compound: O=c1c(O[C@@H]2O[C@H](CO)[C@@H](O)[C@H](O)[C@H]2O)c(-c2ccc(O)c(O)c2)oc2cc(O)cc(O)c12 [quercetin-3-glucoside]
SGLT1 inhibitory activity [2]: SGLT1 inhibitors

Compound: O=c1c(O)c(-c2ccc(O[C@@H]3O[C@H](CO)[C@@H](O)[C@H](O)[C@H]3O)c(O)c2)oc2cc(O)cc(O)c12 [quercetin-4-glucoside]
SGLT1 inhibitory activity [2]: SGLT1 inhibitors

— patent US10806744B2, “Edible composition” (Conopco, Inc., priority 2015, dated 2020)
